Patent US20250197513A1, “OSMR-SPECIFIC MONOCLONAL ANTIBODIES AND METHODS OF THEIR USE” (THE BOARD OF REGENTS OF THE UNIVERSITY OF TEXAS SYSTEM, priority 2021, published 2025)

Assays:
[1] = test system: A2780-Cis cells; experiment: Cell viability, cisplatin 48 h; format: cell-based, human; conditions: cisplatin alone
Method: (§1) CCK8 cell viability assay: One thousand cells were seeded each well in 96-well plates. Following treatment for 48 h, the cells were washed with PBS and incubated for 4 h with CCK8 reagent at 37° C. in 5% CO2 incubator according to manufacturer's guidelines. The absorbance was measured at 460 nm.

[2] = test system: OVCAR8-Cis cells; experiment: Cell viability, cisplatin 48 h; format: cell-based, human; conditions: cisplatin alone
Method: as §1

[3] = test system: SL-3-Cis cells; experiment: Cell viability, cisplatin 48 h; format: cell-based, human; conditions: cisplatin alone
Method: as §1

[4] = test system: A2780 cells; experiment: Cell viability, cisplatin 48 h; format: cell-based, human; conditions: cisplatin alone
Method: as §1

[5] = test system: OVCAR8 cells; experiment: Cell viability, cisplatin 48 h; format: cell-based, human; conditions: cisplatin alone
Method: as §1

[6] = test system: SL3 cells; experiment: Cell viability, cisplatin 48 h; format: cell-based, human; conditions: cisplatin alone
Method: as §1

[7] = test system: A2780 ovarian cancer; experiment: In vivo, intraperitoneal A2780-sensitive luciferase tumors; set-up: species or system athymic nude mice; conditions: single agent, mice stimulated with OSM; cisplatin 5 mg/kg biweekly
[8] = test system: A2780-CP tumors; experiment: In vivo, intraperitoneal A2780-cisplatin resistant luciferase tumors; set-up: species or system athymic nude mice; conditions: cisplatin alone, 5 mg/kg biweekly

Work on `N.N.[Cl][Pt][Cl]` [cisplatin] yielded an IC50 [1] of 10.4 µM, an IC50 [2] of 13.6 µM and an IC50 [3] of 7.37 µM. It also gave an IC50 [4] of 2.04 µM, an IC50 [5] of 1.74 µM and an IC50 [6] of 1.21 µM. For the same compound, the “growth of A2780 ovarian cancer (bioluminescence)” value [7] was “reduced the growth” and the “growth and metastasis of A2780-CP tumors” value [8] was “did not inhibit the growth and metastasis”.
